In assay [1] the target is T1, Neutrophil elastase (Homo sapiens) (UniProt P08246).
T1 sequence (whole entry): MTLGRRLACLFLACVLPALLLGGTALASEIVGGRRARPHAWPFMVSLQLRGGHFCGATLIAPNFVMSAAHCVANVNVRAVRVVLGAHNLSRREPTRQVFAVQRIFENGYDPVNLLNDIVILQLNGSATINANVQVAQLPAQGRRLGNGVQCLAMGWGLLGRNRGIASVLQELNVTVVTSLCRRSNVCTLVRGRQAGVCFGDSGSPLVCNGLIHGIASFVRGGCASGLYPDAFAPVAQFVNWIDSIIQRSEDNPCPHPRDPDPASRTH
In words: Inhibition of human NE using MeOSuc-AAPV-AMC as substrate after 30 mins by fluorescence assay.

Assay [2] concerns the target T1, Neutrophil elastase (Homo sapiens). In words: Inhibition of human NE using MeOSuc-AAPV-AMC as substrate at 6 uM after 30 mins by fluorescence assay.
In assay [3] the target is T2, Myeloblastin (Homo sapiens) (UniProt P24158).
T2 sequence (whole entry): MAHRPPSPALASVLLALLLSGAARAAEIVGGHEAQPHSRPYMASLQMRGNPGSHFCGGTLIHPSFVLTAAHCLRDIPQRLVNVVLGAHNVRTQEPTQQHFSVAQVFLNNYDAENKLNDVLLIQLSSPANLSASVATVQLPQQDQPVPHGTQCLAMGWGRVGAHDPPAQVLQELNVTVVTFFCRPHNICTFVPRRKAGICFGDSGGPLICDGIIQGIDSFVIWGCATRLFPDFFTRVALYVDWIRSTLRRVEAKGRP
In words: Inhibition of human PR3 using N-EY-FRET as substrate at 6 uM after 20 mins by fluorescence assay.

Another assay has as its target T3, Myeloblastin (Homo sapiens, UniProt P24158).
T3 sequence (P24158 whole entry): T2 sequence (whole entry)
In words: Inhibition of human PR3 using D-DY-FRET as substrate after 30 mins by HPLC analysis.

Molecules are shown by their SMILES. pIC50: −log10 of the molar value. Calls of active or inactive are those of the source. The rule behind the calls is not given here. Starred links: 1 amine or outer side, 2 acyl side, 3 side chain; linkers in the order of their positions; H or OH if unused. Non-standard residues stand in square brackets, D forms with d. Residues, ends and D or L forms follow the SMILES beside them. *: point of attachment. EDDnp = O=[N+]([O-])c1ccc(NCCN*)c([N+](=O)[O-])c1; X1 = CCC[C@H](N[*:1])C(=O)C[C@@H](C)C(=O)[*:2]; 2Abz = Nc1ccccc1C(=O)O

By inhibition is commonly meant how much of the control response was suppressed. On to `CCC[C@H](NC(=O)[C@H](CO)NC(=O)[C@H](C)NC(=O)[C@@H](NC(=O)c1ccccc1N)C(C)C)C(=O)C[C@@H](C)C(=O)N[C@@H](CCC(=O)O)C(=O)N[C@@H](CCCNC(=N)N)C(=O)N[C@@H](CCC(N)=O)C(=O)NCCNc1ccc([N+](=O)[O-])cc1[N+](=O)[O-]` (H-[2Abz]VAS[X1]ERQ-EDDnp), for which the inhibition result in assay [1] was “inactive”.
A word on the pIC50: it is the negative decadic logarithm of the IC50, by convention in mol/L. Turning to `O=S(=O)(F)Cc1ccccc1` [PHENYLMETHYLSULFONYLFLUORIDE], the inhibition in assay [2] and in assay [3] was 20% throughout. Further, on Myeloblastin, the pIC50 is 4.72.

The values are drawn from ChEMBL document CHEMBL3351424, “Reversible ketomethylene-based inhibitors of human neutrophil proteinase 3” (J Med Chem, 2014).
